Data on three compounds can be found in publication PMC12067444, “Synthesis and Pharmacological Characterization of Novel Peripheral Cannabinoid-1 Receptor Blockers Based on a Tricyclic Scaffold” (Journal of Medicinal Chemistry, 2025).

Data set [1] concerns the target T1, human CB1R (Homo sapiens, UniProt P21554).
T1 construct: purchased PerkinElmer RBHCB1M400UA
Nature of the data set: Radioligand competition displacement binding, [3H]CP-55,940, membranes with human CB1R. To be noted: for IC50: human CB1R, read-out: CB1R hIC50. As for the experimental part: BNS compounds’ binding to CB1R and CB2R was assessed in competition displacement assays using [^3H]CP-55,940 as the radioligand and crude membranes from mouse brain or human cells overexpressing the CB1R or CB2R. All data were in triplicates with Ki values determined from three independent experiments. See SI for a detailed procedure. […]
(§1) Radioligand binding assays were performed to asse ss the binding affinity of the different compounds to hCB1R (RBHCB1M4 00UA; Per kinElmer) or hCB 2R
(§2) (RBXCB2 M400UA; PerkinElmer). Competition displacement as says w ere employed, […]
(§3) utilizing [3H] C P -55,940 as the radioligand and crude membranes from humans for CB1 R or CB2 R. T he compounds were tested at various concentrations (eight points with a five-fold serial dilution starting at two m M) , and their ability to displace [3H] CP - 55, 940 was evaluated. Upon completion of the binding assays, the reaction mixture was filtered through GF/C plates, followed by four washes with cold wash buffer. After drying for one hour, 50 μL of Perkin Elmer Microscint 20 cocktail was added to the filter plate wells, and the bound [3H] C P -55,940 radioligand was measured using a β counter. All data points were duplicated, and Ki values were determined from two independent experiments using GraphPad Prism 7.02 analysis software, extracted through nonlinear regression analysis. […]

The subject of data set [2] is HepG2 cells. Nature of the data set: Cell viability assay (CellTiter Glo). Type of data set: cell-based. The following applies: 72 h; for IC50: Homo sapiens. As for the experimental part: Cell viability assay. To assess the cell viability, which indicates the toxicity of the novel compounds, a total of 3,000 HepG2 cells were seeded into a 384-well plate. The compounds were then dispensed onto the cell plate using a Tecan D300e digital dispenser. Following compound addition, 35 μL CellTiter Glo reagent was added to all wells of the assay plate, and the plate was mixed for 30 sec on an or bital shaker to lyse cells. Subsequently, the plate was incubated at room temperature for 10 minutes. The luminescence signal was measured using a 384-well plate reader (EnVision). The obtained data were analyzed using XL-fit software (ID Business Solutions Ltd., Software version: XL fit 5. 5. 0. 5). The percentage of inhibition was calculated using the […]
Inhibition (%) = (1-Sample / ZPE) ×100
Sample represents the test compound's luminesc e nce signal, and ZPE represents the luminescence signal f r om the zer o-percent enzyme control.
For orientation: Cellular ATP, detected with luciferase, serves as a proxy for viable cell number.

For data set [3], the target named is T2, mouse CB1R (Mus musculus, UniProt P47746).
T2 construct: crude membranes from mouse brain; from tissue; host or cells: mouse brain cortex (without cerebellum) membranes, C57Bl/6Jhsd mice
Nature of the data set: Radioligand competition displacement binding, [3H]CP-55,940, mouse brain membranes. The following applies: [3H]CP-55,940 displacement, mouse brain membranes; read-out: CB1R mKi. As for the experimental part: (§4) BNS compounds’ binding to CB1R and CB2R was assessed in competition displacement assays using [^3H]CP-55,940 as the radioligand and crude membranes from mouse brain or human cells overexpressing the CB1R or CB2R. All data were in triplicates with Ki values determined from three independent experiments. See SI for a detailed procedure.
Supplementary Experimental Methods
Brain membrane preparation for CB1R b i nd i ng . The mouse cortex, excluding the cerebellum, was dissected from 6-week-old C57Bl/6Jhsd mice (Harlan, Israel). The tissue was homogenized in 4 mL Buffer 1 (320 mM sucrose, 2 mM EDTA, 5 m M MgCl 2) using a glass-Teflon homogenizer and Hei-T ORQUE 200 (Heidolph; Cat# 17-012- 002- 25 -1) homogenizer set to 132 rpm. After homogenization, the mixture was centrifuged at 1,600 × g for 10 min at four °C, and the resulting supernatant was kept on ice. The pellet (P1) was discarded, and the remaining supernatant was subje cted to additional rounds of resuspension in 4 mL Buffer 1 followed by centrifugations, repeating this process three times. The pellets obtained from these centrifugations were discarded, and the three supernatant fractions were combined and subjected to higher-speed centrifugation at 39,000 × g for 15 min at f ou r °C. […] This resuspended pellet ( P 2 ) was incubated at 37 °C for 10 min and then centrifuged at 23, 000 × g for 10 min at 4°C.
After centrifugation, the pellet (P2) was resuspended in 5 mL Buffer 2 and further incubated at 30 °C for 40 min. Following this incubation, the suspension was centrifuged at 11,000 × g for 15 min at 4 °C. The pellet (P2) was resuspended in 2 mL Buffer 3 containing 50 mM TRIS HCl pH 7.4, 1 mM EDTA, and 3 mM MgCl 2. T h e protein concentration of the final suspension was determined using the BCA assay.
Subsequently, the suspension was diluted to a final concentration of 2 mg/mL in Buffer 3, aliquoted on ice, and stored at - 80 °C for further use.
(§5) CB1R and CB2R binding. Binding to the CB1R/CB2R was asse ss ed using competition displacement as says with [ 3H] CP -55,940 as the radioligand. Purified membranes from the mouse brain were utilized for CB1R assessment (as described above). Purified […]
membranes from cells overexpressing human CB2R ( Char les River CAT # A618) w e r e employed for CB2R evaluation.
For mouse CB1R binding assays, the novel compounds were dissolved in dimethyl sulfoxide (DMSO) to reach a final concentration of 10 mM. Each compound was then diluted in Buffer 3 (as described above) supplemented with 0.14% BSA, resulting in concentrations ranging from 10^-4 M to 10^-10 M. Triplicates of 100 µL of each concentration were dispensed into siliconized glass tubes. At the same time, 100 µL of Buffer 3 with 0.14% BSA was dispensed into three tubes as blanks. CB1R b r a i n membranes (20 µg) were added to each tube and diluted with 800 µL Buffer 3 with 0.14% BSA. Subsequently, 5 nM of [ 3H] CP -55,940 (100 µL) was added to each tube.
The tubes were sealed with parafilm and incubated with shaking (120 rpm) in a water bath at 30 °C for 1 hour. Following incubation, 2 mL of cold Buffer 4 (50 mM TRIS HCl pH 7.4, 1 mg/mL BSA) was added to each tube.
To harvest the content of each tube, a Brandel M-24R Vacuum Harvester was employed, with a wet WHATMAN GF/B filter paper (Fired) (one membrane for 12 tubes) placed in the harvester after being washed twice with Buffer 4. The filter membrane in the harvester absorbed the full content of each tube. Then, the filter membrane was wash ed six times with Buffer 4. Each filter -glass membrane tube wa s excised and transferred to a 20 mL glass tube co ntaining a 5 mL ULTIMA GOLD scintillation cocktail. […]
For orientation: Loss of bound radioactivity is the signal in a displacement assay; it reports binding, not function.

In data set [4] the target is T3, human CB2R (Homo sapiens, UniProt P34972).
T3 construct: purchased PerkinElmer; Charles River RBXCB2M400UA; A618
Nature of the data set: Radioligand competition displacement binding, [3H]CP-55,940, membranes with human CB2R. The following applies: [3H]CP-55,940 displacement, read-out: CB2R hKi. As to the method:
as §4
Supplementary Experimental Methods […]
as §5
membranes from cells overexpressing human CB2R ( Char les River CAT # A618) w e r e employed for CB2R evaluation. […]
as §1, §2, §3
MgCl 2. The tissue was homogenized using a glass -Teflon and Hei-T ORQUE 200 homogenizer (Heidolph; Cat#17- 012- 002- 25 -1) set to 132 rpm. The resulting suspen sion underwent centrifugation at 48,000 × g for 20 min at four °C, and the supernatant was discarded. The pellet obtained was homogenized again and subjected to a second centrifugation under the same conditions. Subsequently, the resulting pellet […]
mM EGTA, 9 mM MgCl 2, and 150 mM NaCl, followed by homogenization. The protein concentration of the suspension was determined using the BCA assay, and the suspen sion was diluted to a final concentration of 2 mg/mL in assay buffer. The prepared suspension was aliquoted on ice and stored at - 80 °C for further use.

In data set [5] the target is P-gp (MDR1) (Homo sapiens, UniProt P08183). Nature of the data set: Bidirectional permeability in MDR1-MDCKII cells with and without GF120918. To be noted: dog. As to the method: (§6) MDR1-MDCKII cells were seeded onto […] (PET) in a 96-well insert system. Test and reference compounds were administered to the apical (A-to-B) and basolateral (B-to-A) sides of the cell monolayer. Permeation of the compounds in both directions was assessed, with and without a P-glycoprotein (P-gp) inhibitor (GF120918). […] After a 2.5-h incubation period, each compound’s permeability and efflux ratio were calculated as described in the SI. […]
(§7) Bidirectional permeability assessment in MDR1-MDCK cells. Test and reference compounds were quantified using LC -MS/MS ana lysis based on th e peak ar ea r atio of analyte to internal standard (IS). T he apparent permeability coefficient (Papp) in cm/s was computed using the equation: Pa pp = (dCr/d t ) × V r / ( A × C 0), where dCr/ d t […]
(§8) represents the cumulative concentration of the compound in the receiver chamber over time (µM/s), Vr is the solution volume in the receiver chamber (0.075 mL on the apical side, 0.25 mL on the basolateral side), A is the surface area for transport (0.0804 cm2 f or the monolayer ar ea), and C0 is the initial concentration in the donor chamber ( µM) .
(§9) The efflux ratio was determined using the equation Efflux Ratio = P a pp ( B:
(§10) A ) / Pa pp (A: B) . […]
(§11) Additionally, the percent of lucifer yellow in the basolateral well was calculated using the equation:
(§12) Lucif er yellow = VV bbbbbbbbbbbbbbbbbbbb ×RR FFFF bbbbbbbbbbbbbbbbbbbb ×100 VV bbaaaaaa bbbb ×RRRRRR bbaaaaaa bbbb+VV bbbbbbbbbbbbbbbbbbbb ×RRFFFF bbbbbbbbbbbbbbbbbbbb wher e RFUApical and RFUBasolateral demote the r elative f luor escence unit values of lucif er yellow in the apical and basolateral wells, respectively, and VApical and VBasolateral represent the volumes of apical and basolateral wells (0.075 mL and 0.25 mL, r espectively) . T he % Lucif er Yellow should be less than 2, indicating minimal leakage. […]

For data set [6], the target named is P-gp (MDR1-MDCKII cells) (Homo sapiens, UniProt P08183). The description is as above. As to the method:
as §6, §7, §8, §9, §10, §11, §12

Several values for one entry are separate records, joined by “and”; a condition that tells them apart may be missing. Equal entries are not always repeated. Where two headings read alike, the source gives them in different places. Where only a bound is given, the exact number is not on record here.

T2 sequence (P47746 whole entry): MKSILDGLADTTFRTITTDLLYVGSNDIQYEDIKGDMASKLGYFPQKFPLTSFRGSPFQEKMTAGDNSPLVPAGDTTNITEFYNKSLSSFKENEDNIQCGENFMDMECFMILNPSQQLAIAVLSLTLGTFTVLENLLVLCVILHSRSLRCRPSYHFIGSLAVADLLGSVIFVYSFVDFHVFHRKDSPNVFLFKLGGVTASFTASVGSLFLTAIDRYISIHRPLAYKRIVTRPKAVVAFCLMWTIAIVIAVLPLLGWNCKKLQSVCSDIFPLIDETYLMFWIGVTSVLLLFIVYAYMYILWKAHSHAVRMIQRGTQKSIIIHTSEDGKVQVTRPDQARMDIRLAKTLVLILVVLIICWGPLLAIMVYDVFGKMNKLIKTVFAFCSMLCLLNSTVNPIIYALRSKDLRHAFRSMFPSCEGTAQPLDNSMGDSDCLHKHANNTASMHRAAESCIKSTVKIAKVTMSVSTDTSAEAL
T3 sequence (P34972 whole entry): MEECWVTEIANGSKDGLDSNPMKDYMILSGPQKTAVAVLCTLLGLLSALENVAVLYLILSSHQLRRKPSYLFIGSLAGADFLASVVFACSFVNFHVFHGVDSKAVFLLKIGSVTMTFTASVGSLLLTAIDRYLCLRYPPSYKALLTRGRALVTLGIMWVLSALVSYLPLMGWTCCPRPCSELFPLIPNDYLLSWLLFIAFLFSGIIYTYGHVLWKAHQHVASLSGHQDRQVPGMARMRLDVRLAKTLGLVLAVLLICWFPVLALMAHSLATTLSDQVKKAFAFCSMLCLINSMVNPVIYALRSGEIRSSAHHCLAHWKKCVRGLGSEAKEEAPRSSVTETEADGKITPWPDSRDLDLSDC
P-gp (MDR1), sequence (P08183 whole entry): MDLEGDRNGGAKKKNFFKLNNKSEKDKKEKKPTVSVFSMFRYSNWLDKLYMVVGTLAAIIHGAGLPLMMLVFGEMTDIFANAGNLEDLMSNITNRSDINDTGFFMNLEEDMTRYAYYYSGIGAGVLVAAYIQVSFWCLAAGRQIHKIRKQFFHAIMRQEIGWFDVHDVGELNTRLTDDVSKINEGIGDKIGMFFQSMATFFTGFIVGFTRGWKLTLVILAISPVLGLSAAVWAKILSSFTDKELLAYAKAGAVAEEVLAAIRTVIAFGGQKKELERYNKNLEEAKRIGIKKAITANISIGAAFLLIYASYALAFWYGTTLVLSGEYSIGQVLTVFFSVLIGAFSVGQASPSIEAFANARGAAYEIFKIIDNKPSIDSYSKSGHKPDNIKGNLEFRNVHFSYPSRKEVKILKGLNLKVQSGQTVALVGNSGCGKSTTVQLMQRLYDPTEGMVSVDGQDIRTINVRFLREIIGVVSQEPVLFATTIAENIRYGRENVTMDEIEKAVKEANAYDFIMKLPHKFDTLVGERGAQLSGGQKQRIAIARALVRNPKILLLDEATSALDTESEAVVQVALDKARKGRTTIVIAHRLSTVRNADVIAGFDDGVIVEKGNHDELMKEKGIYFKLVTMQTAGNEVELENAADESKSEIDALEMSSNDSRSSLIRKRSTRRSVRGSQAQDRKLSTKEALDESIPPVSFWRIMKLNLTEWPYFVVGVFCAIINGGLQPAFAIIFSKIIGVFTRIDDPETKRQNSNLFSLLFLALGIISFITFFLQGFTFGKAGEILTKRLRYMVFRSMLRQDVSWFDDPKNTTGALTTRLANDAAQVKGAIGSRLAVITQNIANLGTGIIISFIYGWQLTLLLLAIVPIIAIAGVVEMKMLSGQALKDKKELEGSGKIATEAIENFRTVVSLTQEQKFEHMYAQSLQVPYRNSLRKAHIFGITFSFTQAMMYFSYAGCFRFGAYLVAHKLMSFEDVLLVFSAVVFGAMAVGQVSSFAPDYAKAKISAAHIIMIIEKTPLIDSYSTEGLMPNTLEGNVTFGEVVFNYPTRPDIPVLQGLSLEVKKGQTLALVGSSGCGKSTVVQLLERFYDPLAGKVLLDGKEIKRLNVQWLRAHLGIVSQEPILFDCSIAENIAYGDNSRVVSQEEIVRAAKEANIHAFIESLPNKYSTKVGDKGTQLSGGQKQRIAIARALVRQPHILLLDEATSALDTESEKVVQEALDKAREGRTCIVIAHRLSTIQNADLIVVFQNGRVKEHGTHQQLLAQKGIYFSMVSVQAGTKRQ
T1 sequence (P21554 whole entry): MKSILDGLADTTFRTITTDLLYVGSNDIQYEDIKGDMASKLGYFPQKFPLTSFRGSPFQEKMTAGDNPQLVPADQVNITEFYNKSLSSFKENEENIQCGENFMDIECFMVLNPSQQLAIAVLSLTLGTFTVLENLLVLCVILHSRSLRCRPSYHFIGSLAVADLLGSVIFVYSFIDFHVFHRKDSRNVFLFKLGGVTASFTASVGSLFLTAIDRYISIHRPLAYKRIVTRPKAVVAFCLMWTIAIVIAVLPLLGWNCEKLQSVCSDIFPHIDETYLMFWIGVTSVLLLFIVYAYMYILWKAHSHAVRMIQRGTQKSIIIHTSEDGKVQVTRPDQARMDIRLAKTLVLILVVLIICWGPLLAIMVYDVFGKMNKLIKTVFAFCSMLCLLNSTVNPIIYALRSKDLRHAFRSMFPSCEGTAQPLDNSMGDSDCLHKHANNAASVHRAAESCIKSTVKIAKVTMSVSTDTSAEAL
P-gp (MDR1-MDCKII cells), sequence (P08183 whole entry): as the sequence (P08183 whole entry) above

Turning to `O=C(NC1CCCOc2c1nn(-c1ccccc1Cl)c2-c1ccc(Cl)cc1)C1CCN(S(=O)(=O)c2ccc(Cl)cc2)CC1` (stereo not shown) [BNS825, N-[2-(2-Chlorophenyl)-3-(4-chlorophenyl)-5,6,7,8-tetrahydrooxepino[3,2-c]pyrazol-8-yl]-1-(4-chlorophenyl)sulfonyl-piperidine-4-carboxamide], the Ki in data set [1] ([3H]CP-55,940 displacement, human CB1R membranes, read-out: CB1R hKi) is 3.1 nM; in data set [3], 1.6 nM; in data set [4], 127 nM. Also, the IC50 in data set [1] was 3.8 nM; in data set [2] (read-out: cell viability Absolute IC50), over 100000 nM; in data set [2] (read-out: cell viability relative IC50), over 100000 nM. The “Bottom (%) of cell viability inhibition curve” value in data set [2] is listed as -11.62%. Besides, the “Slope of cell viability inhibition curve” value in data set [2] is -0.21. In data set [2], the “Top (%) of cell viability inhibition curve” value was found to be 6.27%.

For the compound `CCOC(=O)N1CCC(C(=O)NC2CCCOc3c2nn(-c2ccccc2Cl)c3-c2ccc(Cl)cc2)CC1` (stereo not shown) [BNS816, Ethyl-4-((2-(2-chlorophenyl)-3-(4-chlorophenyl)-5,6,7,8-tetrahydro-2H-oxepino[3,2-c]pyrazol-8-yl)carbamoyl)piperidine-1-carboxylate], in data set [5] (MDCK-MDR1), the Papp A→B (commonly how fast a substance crosses the layer from the apical side) at 2.5 h is 6.99 ×10⁻⁶ cm/s. The basolateral-to-apical permeability (Papp B→A) – broadly, how fast a substance crosses the layer from the basolateral side – at 2.5 h in data set [5] (MDCK-MDR1) is 5.37 ×10⁻⁶ cm/s. For the same compound, in data set [5] (MDCK-MDR1), the efflux ratio (commonly the permeability from basolateral to apical divided by that in the opposite direction, in the common usage) at 2.5 h was 0.77. The recovery at 2.5 h turned out to be 41.6% in data set [5] (MDCK-MDR1, Mean recovery % A to B, without GF120918); 61.4% in data set [5] (MDCK-MDR1, Mean recovery % B to A, with GF120918); 48.8% in data set [5] (MDCK-MDR1, Mean recovery % B to A, without GF120918). Further, in data set [6] (MDR1-MDCKII cells), the P-gp substrate entry is listed as “no”. Moreover, the “Rank Papp” value in data set [6] (MDR1-MDCKII permeability rank) is “Hi gh”. Further, the Ki in data set [3] was 8.9 nM and 8.93 nM; in data set [4], 1530 nM.

In the case of `CS(=O)(=O)NC1CCCOc2c1nn(-c1ccccc1Cl)c2-c1ccc(Cl)cc1` (stereo not shown) [BNS809, N-[2-(2-Chlorophenyl)-3-(4-chlorophenyl)-5,6,7,8-tetrahydrooxepino[3,2-c]pyrazol-8-yl]methanesulfonamide], the IC50 in data set [1] came out at 8.5 nM. The Ki in data set [3] is 33.8 nM; in data set [4] it was over 9000 nM.
